From US20200246284A1 (Academia Sinica, priority 2015, published 2020)
Values joined by “and” are separate entries in the source; they are usually repeats but may differ in a detail not shown here. Identical values can stand only once. Like-named read-outs stand apart in the source and are kept apart here.

Experiments:
[1] = system: MRC5 fetal lung fibroblast; type: cell-based, human
[2] = system: 16HBE SV40+ bronchial epithelium; type: cell-based, human
HCC15 = type: cell-based, human
PC1 (jap) = type: cell-based, human
[3] = system: nude mice bearing prostate 22Rv/HL2; conditions: mouse, in vivo; as to BASO: test concentration or dose not given here; as to EOS: test concentration or dose not given here; as to LYM: test concentration or dose not given here; as to MONO: test concentration or dose not given here; as to NEU: test concentration or dose not given here; as to PLT: test concentration or dose not given here
H1373 = type: cell-based, human
CALU-3 = type: cell-based, human
H1395 = type: cell-based, human
HCC364 = type: cell-based, human
SK-LU-1 = type: cell-based, human
H3122 = type: cell-based, human
H1975 = type: cell-based, human
A549 = type: cell-based, human
HCC827 = type: cell-based, human
PC9 = type: cell-based, human
SK-MES-1 = type: cell-based, human
H596 = type: cell-based, human
H525 = type: cell-based, human
CALU-6 = type: cell-based, human
[4] = system: IMR90 fetal lung myofibroblast; assay: Cytotoxicity normal tissue 72 hr; type: cell-based, human
H520 = type: cell-based, human
H1666 = type: cell-based, human
H1755 = type: cell-based, human
H2228 = type: cell-based, human
H3255 = type: cell-based, human
[5] = system: BEAS2B SV40 bronchial epithelium; type: cell-based, human
H647 = type: cell-based, human
H1650 = type: cell-based, human
CALU-1 = type: cell-based, human
H1703 = type: cell-based, human
H1781 = type: cell-based, human
[6] = system: nude mice bearing prostate 22Rv/HL2 tumor xenografts; conditions: mouse, in vivo
HS27 adult BM stroma = type: cell-based, human
[7] = system: normal human, murine or primate cell and tissue types; assay: Cytotoxicity, panel of normal tissues (MTT, alamar blue); type: cell-based
EBC1 = type: cell-based, human
BMMSC BM mesenchyme = assay: Cytotoxicity normal tissue 72 hr; type: cell-based, human
[8] = system: nude mice bearing prostate 22Rv/HL2; conditions: mouse, in vivo; remark: listed apart in the source; as to BASO: test concentration or dose not given here; as to EOS: test concentration or dose not given here; as to LYM: test concentration or dose not given here; as to MONO: test concentration or dose not given here; as to NEU: test concentration or dose not given here; as to PLT: test concentration or dose not given here
HCC2450 = type: cell-based, human
[9] = system: Cord Blood CFC (CFU-GM, BFU-E, CFU-C); type: cell-based, human
Karpas-422 = assay: Cytotoxicity DLBCL; conditions: read-out: cytotoxicity IC50; Karpas-422, DLBCL GCB
Protocol: (§1) After 72 hours, the cultures were pulsed with Alamar Blue overnight, and the fluorescent intensity of resulted cultures was measured by a Synergy H1 plate-reader (BioTek Inc).

NECB-1 = assay: Cytotoxicity mantle cell lymphoma; conditions: read-out: cytotoxicity IC50; NECB-1, mantle cell lymphoma
Protocol: as §1

SUDHL-5 = assay: Cytotoxicity DLBCL; conditions: read-out: cytotoxicity IC50; SUDHL-5, DLBCL GCB
Mino [10] = assay: Cytotoxicity mantle cell lymphoma; conditions: read-out: cytotoxicity IC50; Mino, mantle cell lymphoma
Protocol: as §1

DLBCL (GBC) cell lines = assay: Combination of BO-1055 with PUH71, TT46, bortezomib, doxorubicin (Table 25); type: cell-based; conditions: Homo sapiens, read-out: IC50 single agent
SUDHL-6 = assay: Cytotoxicity DLBCL; conditions: read-out: cytotoxicity IC50; SUDHL-6, DLBCL GCB
Protocol: as §1

Ly18 = assay: Cytotoxicity DLBCL; conditions: read-out: cytotoxicity IC50; LY18, DLBCL GCB
Protocol: as §1

JEKO-1 = assay: Cytotoxicity mantle cell lymphoma
Protocol: as §1

LY1 = assay: Cytotoxicity DLBCL; conditions: read-out: cytotoxicity IC50; LY1, DLBCL GCB
Protocol: as §1

Z-138 [11] = assay: Cytotoxicity mantle cell lymphoma; conditions: read-out: cytotoxicity IC50; Z-138, mantle cell lymphoma
Protocol: as §1

Ly3 (OCI-LY3) = assay: Cytotoxicity DLBCL; conditions: read-out: cytotoxicity IC50; LY3, DLBCL ABC
Protocol: as §1

Mino [12] = assay: Combination with BO-1055, MCL (Tables 28, 29); type: cell-based, human; conditions: Mino; combo-1 BO-1055 variable, combo-2 partner variable
Toledo = assay: Cytotoxicity DLBCL; conditions: read-out: cytotoxicity IC50, DLBCL GCB
Protocol: as §1

Ly8 = assay: Cytotoxicity DLBCL; conditions: read-out: cytotoxicity IC50; LY8, DLBCL GCB
Protocol: as §1

Granta = assay: Combination with BO-1055, MCL (Tables 28, 29); type: cell-based, human; conditions: Granta; combo-1 BO-1055 variable, combo-2 partner variable
SUDHL-4 = assay: Cytotoxicity DLBCL; conditions: read-out: cytotoxicity IC50; SUDHL-4, DLBCL GCB
Protocol: as §1

REC-1 = assay: Combination with BO-1055, MCL (Tables 28, 29); type: cell-based, human; conditions: REC-1; combo-1 BO-1055 variable, combo-2 partner variable
Granta-519 = assay: Cytotoxicity mantle cell lymphoma; conditions: read-out: cytotoxicity IC50; Granta-519, mantle cell lymphoma
Protocol: as §1

U2932 = assay: Cytotoxicity DLBCL; conditions: read-out: cytotoxicity IC50; U2932, DLBCL ABC
Protocol: as §1

[13] = system: spontaneous murine B-cell lymphoma; assay: Cytotoxicity, with or without MS5 stromal cells; conditions: read-out: cytotoxicity IC50; murine BCL, spontaneous NSG CD19+, no stromal support
Z-138 [14] = assay: Combination with BO-1055, MCL (Tables 28, 29); type: cell-based, human; conditions: Z-138; combo-1 BO-1055 variable, combo-2 partner variable
HBL1 = assay: Cytotoxicity DLBCL; conditions: read-out: cytotoxicity IC50; HBL1, DLBCL ABC
Protocol: as §1

NECB1 = assay: Combination with BO-1055, MCL (Tables 28, 29); type: cell-based, human; conditions: NECB1; combo-1 BO-1055 variable, combo-2 partner variable

N.N.O=C([O-])C1(C(=O)[O-])CCC1.[Pt+2] [Carboplatin]
IC50 [1]: 210 µM
IC50 [2]: 35.5 µM
IC50 (HCC15): 173 µM
IC50 (PC1 (jap)): 57.4 µM
BASO [3]: 0.03 10^3/μL
EOS [3]: 0.13 10^3/μL
LYM [3]: 0.60 10^3/μL
MONO [3]: 0.07 10^3/μL
NEU [3]: 1.13 10^3/μL
PLT [3]: 369 10^3/μL
RBC [3]: 9.37 10^6/μL
WBC [3]: 1.97 10^3/μL
IC50 (H1373): 29.3 µM
IC50 (CALU-3): 84.5 µM
IC50 (H1395): 17.4 µM
IC50 (HCC364): 172 µM
IC50 (SK-LU-1): 42.4 µM
IC50 (H3122): 109 µM
IC50 (H1975): 60.2 µM
IC50 (A549): 41.3 µM
IC50 (HCC827): 138 µM
IC50 (PC9): 32.1 µM
IC50 (SK-MES-1): 160 µM
IC50 (H596): 34.1 µM
IC50 (H525): 72.7 µM
IC50 (CALU-6): 14.7 µM
IC50 [4]: 1000 µM
IC50 (H520): 75.6 µM
IC50 (H1666): 90.7 µM
IC50 (H1755): 41.4 µM
IC50 (H2228): 8.62 µM
IC50 (H3255): 24.3 µM
IC50 [5]: 120 µM
IC50 (H647): 25.5 µM
IC50 (H1650): 69.7 µM
IC50 (CALU-1): 96.2 µM
IC50 (H1703): ≥ 80 µM
IC50 (H1781): 3.99 µM
pathological change in heart, liver, spleen, lung and kidney [6]: no apparent pathological change
IC50 (HS27 adult BM stroma): 35.3 µM
IC50 [7]: ≥ 32.8 µM
IC50 (EBC1): 168 µM
IC50 (BMMSC BM mesenchyme): 32.8 µM
ALT [8]: 64.85 U/L
AST [8]: 119.15 U/L
BUN [8]: 21.17 mg/dL
CREA [8]: 0.31 mg/dL
UA [8]: 1.97 mg/dL
IC50 (HCC2450): 34.5 µM
IC50 [9]: 1.7 µM

CC(C)NCCCn1c(Sc2cc3c(cc2I)OCO3)nc2c(N)ncnc21 [PUH71]
IC50 (Karpas-422): 0.45 µM
IC50 (NECB-1): 1.66 µM
IC50 (SUDHL-5): 0.41 µM
IC50 (Mino [10]): 0.26 µM
IC50 (DLBCL (GBC) cell lines; Farage): 0.785 µM
IC50 (DLBCL (GBC) cell lines; KARPAS-422, KARPAS-422): 1.52 µM
IC50 (DLBCL (GBC) cell lines; OCI-LY19, OCI-LY19): 0.221 µM
IC50 (DLBCL (GBC) cell lines; OCI-Ly8, OCI-LY8): 0.814 µM
IC50 (DLBCL (GBC) cell lines; OCI-Ly18, OCI-LY18): 0.274 µM
IC50 (DLBCL (GBC) cell lines; OCY-LY1): 0.208 µM
IC50 (DLBCL (GBC) cell lines; OCY-LY7): 0.391 µM
IC50 (DLBCL (GBC) cell lines; PFEIFER): 0.335 µM
IC50 (DLBCL (GBC) cell lines; SU-DHL-4, SUDHL4): 0.379 µM
IC50 (DLBCL (GBC) cell lines; SU-DHL-5, SUDHL5): 0.336 µM
IC50 (DLBCL (GBC) cell lines; SU-DHL-6, SUDHL6): 0.672 µM
IC50 (DLBCL (GBC) cell lines; Toledo): 10.9 µM
IC50 (SUDHL-6): 0.05 µM
IC50 (Ly18): 0.27 µM
IC50 (JEKO-1; JEKO-1, 72 hr (Table 27)): 0.31 µM
IC50 (JEKO-1; read-out: cytotoxicity IC50, JEKO-1, mantle cell lymphoma): 0.26 µM
IC50 (LY1): 0.26 µM and 0.308 µM
IC50 (Z-138 [11]): 0.06 µM
IC50 (Ly3 (OCI-LY3)): 2.78 µM
interaction with BO-1055 (Mino [12]): dually synergistic
IC50 (Toledo): 2.66 µM
IC50 (Ly8): 0.81 µM
interaction with BO-1055 (Granta): dually antagonistic
IC50 (SUDHL-4): 0.2 µM
interaction with BO-1055 (REC-1): antagonistic against REC-1 in both combinations
IC50 (Granta-519): 1.22 µM
IC50 (U2932): 0.49 µM
IC50 [13]: 0.24 µM
interaction with BO-1055 (Z-138 [14]): synergistic with BO-1055 in both combinations
IC50 (HBL1): 1.67 µM
interaction with BO-1055 (NECB1): synergistic with BO-1055 against NECB1 in combo-1 and antagonistic in combo-2
